Laboratory results from patent US9994673B2, “Bisphenol polyether oligomers, methods of manufacture, and polycarbonates made therefrom” (SABIC GLOBAL TECHNOLOGIES B.V, priority 2013, dated 2018).
Entries after “also recorded” stand apart in the source; their conditions may differ.

Legend:
[1] = biological target: T1, recombinant human estradiol receptor (rhER) alpha (Homo sapiens, UniProt P03372); assay: Competitive estradiol binding assay, displacement of [3H]estradiol, rhER alpha; details: up to highest concentration 2.5×E-4 M
T1 sequence (P03372 1-595): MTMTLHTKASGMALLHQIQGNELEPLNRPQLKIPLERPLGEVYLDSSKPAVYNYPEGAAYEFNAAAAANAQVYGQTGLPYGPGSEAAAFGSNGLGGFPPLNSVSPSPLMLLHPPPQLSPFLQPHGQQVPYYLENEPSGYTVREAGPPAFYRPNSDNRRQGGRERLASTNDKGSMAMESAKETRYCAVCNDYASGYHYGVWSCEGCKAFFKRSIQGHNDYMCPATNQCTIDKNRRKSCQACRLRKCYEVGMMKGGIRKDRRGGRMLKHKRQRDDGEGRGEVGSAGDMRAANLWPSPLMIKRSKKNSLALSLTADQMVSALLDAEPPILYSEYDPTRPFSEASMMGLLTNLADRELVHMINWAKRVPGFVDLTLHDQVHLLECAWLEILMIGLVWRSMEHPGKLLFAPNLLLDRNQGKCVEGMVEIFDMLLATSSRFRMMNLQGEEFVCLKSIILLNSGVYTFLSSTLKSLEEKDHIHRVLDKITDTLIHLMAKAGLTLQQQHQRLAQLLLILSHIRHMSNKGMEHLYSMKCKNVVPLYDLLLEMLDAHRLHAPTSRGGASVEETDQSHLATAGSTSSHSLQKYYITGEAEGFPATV

[2] = biological target: recombinant human estradiol receptor (rhER) beta 1 (Homo sapiens, UniProt Q92731); assay: Competitive estradiol binding assay, displacement of [3H]estradiol, rhER beta 1; details: up to highest concentration 2.5×E-4 M

Row | Structure (SMILES) | Binding to rhER alpha (in words) [1] | Binding to rhER beta (in words) [2] | Binding to rhER alpha (in words) ([1]; listed as BPA) | Binding to rhER beta (in words) ([2]; listed as BPA)
1 | CC(C)(c1ccc(O)cc1)c1ccc(OCc2ccc(COc3ccc(C(C)(C)c4ccc(O)cc4)cc3)cc2)cc1 [BPA-X-1, 4,4′-[1,4-Phenylenebis(methyleneoxy-4,1-phenylene(1-methylethylidene))]bisphenol] | no detectable binding | no detectable binding | – | –
2 | CC(C)(c1ccc(O)cc1)c1ccc(O)cc1 [Control B, Bisphenol A] | – | – | bind to both receptors; also recorded: very low level of binding | bind to both receptors; also recorded: very low level of binding
3 | CC(C)(c1ccccc1)c1ccc(O)cc1 [Control C, p-Cumyl Phenol] | very low level of binding | very low level of binding | – | –
